Read-outs that look alike come from different tables or passages of the source.
Assays:
[1] = test system: PBD6 tobacco plants HPPD + EPSPS; assay: Postemergence tolerance of tobacco, percentage destruction; assay type: in vivo; details: 17 days after treatment
Procedure: (§1) In this trial, each test is performed on a sample of 10 plants, 10 plants being kept untreated.
(§2) All the treatments are performed by spraying at the rate of 500 l of spraying mixture per hectare.
(§3) For the postemergence treatment, sowing is performed and then the plants are transplanted in 9 cm×9 cm pots.
The postemergence treatments are carried out at a well developed stage (3-4 leaves). Batches of plants, respectively wild-type and genetically transformed, obtained above are divided into several parts, with:
Under these conditions, the following phytotoxicities are observed 17 days after the treatment, expressed as percentage destruction indicated in the following table, as well as the number of plants per batch and the doses of herbicide(s) expressed in gram of active substance per hectare: […]

[2] = test system: PBD6 tobacco transformed with pRP 2012; assay: Tolerance of tobacco transformed with chimeric gene pRP 2012 (HPPD + double mutant EPSPS); assay type: in vivo; details: under the conditions described in Example 7
Procedure: The chimeric gene pRP 2012 described below is transferred into the PBD6 industrial tobacco according to the transformation and regeneration procedures already described in European Application EP No. 0 508 909.
The regeneration of the PBD6 tobacco (source SEITA France) from foliar explants is carried out on a Murashige and Skoog (MS) basal medium comprising 30 g/l of sucrose and 350 mg/l of cefotaxime and 1 mg/l of isoxaflutole. The foliar explants are removed from is greenhouse plants or in vitro and transformed according to the foliar disc technique (Science 1985, Vol. 227, p. 1229-1231) in three successive stages: the first comprises the induction of shoots on an MS medium supplemented with 30 g/l of sucrose containing 0.05 mg/l of naphthylacetic acid (ANA) and 2 mg/l of benzylaminopurine (BAP) for 15 days and 1 mg/l of isoxaflutole. The green shoots formed during this stage are then developed by culturing on an MS medium supplemented with 30 g/l of sucrose and 1 mg/l of isoxaflutole but containing no hormone, for 10 days. The shoots that have developed are then removed and they are cultured on MS rooting medium with half the content of salts, vitamins and sugars and 1 mg/l of isoxaflutole and containing no hormone. […]
All the plants obtained according to this protocol are analysed by PCR with primers specific for P. fluorescens HPPD. […]

[3] = test system: wild-type tobacco without tolerance gene; assay: Postemergence tolerance of tobacco, percentage destruction; assay type: in vivo; details: 17 days after treatment
Procedure: as §1, §2, §3
(§4) The postemergence treatments are carried out at a well developed stage (3-4 leaves). Batches of plants, respectively wild-type and genetically transformed, obtained above are divided into several parts, with: […]

[4] = test system: maize EPSPS mutant Ala 101/Ile 102; assay: EPSP synthase enzymatic activity, resistance to glyphosate in vitro; assay type: biochemical
Procedure: (§5) The various EPSP synthase genes are introduced in the form of an NcoI-HindIII cassette into the plasmid is vector pTrc99a (Pharmacia, ref: 27-5007-01) cut with NcoI and HindIII. The recombinant E. coli DH10B overexpressing the various EPSP syntheses are sonicated in 40 ml of buffer per 10 g of culotted cells and washed with this same buffer (200 mM Tris-HCl pH 7.8, 50 mM mercaptoethanol, 5 mM EDTA and 1 mM PMSF), to which 1 g of polyvinylpyrrolidone is added. The suspension is stirred for 15 minutes at 4° C. and then centrifuged for 20 minutes at 27,000 g and at 4° C.
(§6) The supernatant is supplemented with ammonium sulphate so as to bring the solution to 40% saturation with ammonium sulphate. The mixture is centrifuged for 20 minutes at 27,000 g and at 4° C. The new supernatant is supplemented with ammonium sulphate so as to bring the solution to 70% saturation with ammonium sulphate. The mixture is centrifuged for 30 minutes at 27,000 g and at 4° C. The EPSP synthase present in this protein pellet is taken up in 1 ml of buffer (20 mM Tris-HCl pH 7.8 and 50 mM mercaptoethanol). This solution is dialysed overnight against two litres of this same buffer at 4° C.
(§7) The activity of each enzyme as well as its resistance to glyphosate is measured in vitro over 10 minutes at 37° C. in the following reaction mixture: 100 mM maleic acid pH 5.6, 1 mM phosphoenol pyruvate, 3 mM shikimate-3-phosphate (prepared according to Knowles P. P. and Sprinson D. B., 1970, Methods in Enzymol., 17A, 351-352 from Aerobacter aerogenes strain ATCC 25597) and 10 mM potassium fluoride. The enzymatic extract is added at the last moment after the addition of glyphosate whose final concentration varies from 0 to 20 mM.
(§8) The activity is measured by assaying the phosphate liberated according to the technique of Tausky H. A. and Shorr B., 1953, J. Biol. Chem., 202, 675-685.

[5] = biological target: T1, maize EPSPS mutant Ile 102 (Zea mays, UniProt A0A1D6NVZ6, T164I); assay: as above; assay type: biochemical
T1 sequence (A0A1D6NVZ6 63-506 T164I): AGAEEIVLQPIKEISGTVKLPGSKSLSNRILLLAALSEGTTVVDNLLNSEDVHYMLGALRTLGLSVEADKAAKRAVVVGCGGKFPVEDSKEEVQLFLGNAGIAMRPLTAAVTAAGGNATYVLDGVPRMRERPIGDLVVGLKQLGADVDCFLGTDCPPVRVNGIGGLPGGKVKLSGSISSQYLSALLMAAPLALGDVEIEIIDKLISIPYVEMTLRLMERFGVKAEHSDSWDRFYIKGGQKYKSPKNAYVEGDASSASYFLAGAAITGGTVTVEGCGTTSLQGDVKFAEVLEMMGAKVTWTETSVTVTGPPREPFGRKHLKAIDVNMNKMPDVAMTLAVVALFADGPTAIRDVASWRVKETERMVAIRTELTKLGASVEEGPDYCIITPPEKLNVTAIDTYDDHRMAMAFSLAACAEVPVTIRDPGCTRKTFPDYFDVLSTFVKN
Procedure: as §5, §6, §7, §8

[6] = test system: maize EPSPS mutant Ile 102/Ser 106; assay: as above; assay type: biochemical
Procedure: as §5, §6, §7, §8

[7] = test system: wild-type (WT) maize EPSPS; assay: as above; assay type: biochemical; details: 0.12 mM glyphosate; 10 minutes at 37° C., pH 5.6
Procedure: as §5, §6, §7, §8

[8] = test system: maize EPSPS mutant Ser106; assay: as above; assay type: biochemical; details: 0.12 mM glyphosate
Procedure: as §5, §6, §7, §8

maize EPSPS mutant Ala = assay: as above; assay type: biochemical
Procedure: as §5, §6, §7, §8

[9] = test system: control tobacco, not transformed (PBD6); assay: Greenhouse treatment of non-transformed control tobacco with isoxaflutole; assay type: in vivo
Procedure: Upon leaving in vitro, the transformed tobacco plantlets were acclimatized in a greenhouse (60% relative humidity, temperature: 20° C. at night and 23° C. during the day) for five weeks and then treated with 4-[4-CF3-2-(methylsulphonyl)benzoyl]-5-cyclopropylisoxazole.
The control tobacco, not transformed and treated with 4-[4-CF3-2-(methylsulphonyl)benzoyl]-5-cyclopropylisooxazole at doses ranging from 50 to 400 g/ha, develop chlorosis in about 72 hours, which intensifies and develops into very pronounced necrosis within one week (covering about 80% of the terminal leaves).

nontransgenic maize = assay: Selection of maize seeds on sand after isoxaflutole treatment; assay type: in vivo; details: 100 g/ha, 20 seeds sown
Procedure: (§9) The transformed plants obtained above produced pollen, assumed in part to be transgenic, which fertilized ovules from a nontransgenic wild-type maize. The seeds obtained are selected on sand after treating with isoxaflutole.
The selection protocol is the following: 800 ml of Fontainebleau sand are placed in a tub with sides 15×20 cm. These tubs are then sprayed with water and kept hydrated by supplying a nutritive solution consisting of 5 ml of Quinoligo (Quinoline) per litre of water. Twenty maize seeds are placed on the tubs, which are then treated with isoxaflutole by spraying at the rate of 100 to 200 g of active substance per hectare (300 or 600 μg of active substance per tub). The tubs are then placed in culture in a greenhouse.

[10] = test system: PBD6 tobacco overexpressing the P. fluorescens HPPD; assay: Greenhouse treatment of transformed tobacco overexpressing HPPD with isoxaflutole; assay type: in vivo
From the text: To determine the efficiency of these two chimeric genes, they were transferred into the industrial tobacco PBD6 according to the transformation and regeneration techniques already described in European Application EP No. 0 508 909.
The vector is introduced into the non oncogenic Agrobacterium EHA 101 strain (Hood et al., 1987) carrying the cosmaid pTVK 291 (Komari et al., 1986). The transformation technique is based on the procedure by Horsh R. et al., (1985) Science, 227, 1229-1231.
The regeneration of the PBD6 tobacco (source SEITA France) from foliar explants is carried out on a Murashige and Skoog (MS) basal medium comprising 30 g/l of sucrose and 100 μg/ml of kanamycin. The foliar explants are removed from greenhouse plants or in vitro and transformed according to the foliar disc technique (Science 1985, Vol. 227, p. 1229-1231) in three successive stages: the first comprises the induction of shoots on an MS medium supplemented with 30 g/l of sucrose containing 0.05 mg/l of naphthylacetic acid (ANA) and 2 mg/l of benzylaminopurine (BAP) for 15 days. The shoots formed during this stage are then developed by culturing on an MS medium supplemented with 30 g/l of sucrose but containing no hormone, for 10 days. […]

[11] = test system: PBD6 tobacco plants HPPD + OXY; assay: Postemergence tolerance of tobacco, percentage destruction; assay type: in vivo; details: 17 days after treatment
Procedure: as §1, §2, §3, §4

[12] = test system: maize genotype 261 2B 459 (progeny of HPPD-transformed plants); assay: Selection of maize seeds on sand after isoxaflutole treatment; assay type: in vivo; details: 10 seeds sown
Procedure: as §9
(§10) The selection protocol is the following: 800 ml of Fontainebleau sand are placed in a tub with sides 15×20 cm. These tubs are then sprayed with water and kept hydrated by supplying a nutritive solution consisting of 5 ml of Quinoligo (Quinoline) per litre of water. […] The tubs are then placed in culture in a greenhouse.

[13] = test system: maize genotype 261 2A2 (progeny of HPPD-transformed plants); assay: as above; assay type: in vivo; details: 10 seeds sown
Procedure: as §9, §10

[14] = test system: maize genotype 261 2D2 (progeny of HPPD-transformed plants); assay: as above; assay type: in vivo; details: 10 seeds sown
Procedure: as §9, §10

## O=C(O)CNCP(=O)(O)O [glyphosate]
[1]; 800 g/ha postemergence
  phytotoxicity, percentage destruction: 0%
[1]; 1200 g/ha postemergence
  phytotoxicity, percentage destruction: 0%
[2]
  tolerance: tolerant
[3]; 800 g/ha postemergence
  phytotoxicity, percentage destruction: 100%
[3]; 1200 g/ha postemergence
  phytotoxicity, percentage destruction: 100%
[4]; 0.12 mM glyphosate
  inhibition of enzyme activity: not or not strongly inhibited
[4]; 1.2 mM glyphosate
  inhibition of enzyme activity: not being inhibited
[4]; up to concentrations of 10 m glyphosate
  inhibition of enzyme activity: not inhibited
[5]; 0.12 mM glyphosate
  inhibition of enzyme activity: not or not strongly inhibited
[5]; 10 minutes at 37° C., pH 5.6, read-out: glyphosate concentration to inhibit the enzyme by 50%
  IC50: 1.2 mM
[6]; 0.12 mM glyphosate
  inhibition of enzyme activity: not or not strongly inhibited
[6]; 1.2 mM glyphosate
  inhibition of enzyme activity: not being inhibited
[6]; 20 mM glyphosate
  reduction of enzyme activity: not reduced
[7]
  inhibition of enzyme activity: 85%
[8]
  inhibition of enzyme activity: 50%
Maize EPSPS mutant Ala
  inhibition of enzyme activity: not inhibited
Maize EPSPS mutant Ala; 1.2 mM glyphosate
  inhibition of enzyme activity: not being inhibited

## CS(=O)(=O)c1cc(C(F)(F)F)ccc1C(=O)c1cnoc1C1CC1 [isoxaflutole, 4-[4-CF3-2-(methylsulphonyl)benzoyl]-5-cyclopropylisoxazole]
[1]; 200 g/ha postemergence
  phytotoxicity, percentage destruction: 2%
[1]; 400 g/ha postemergence
  phytotoxicity, percentage destruction: 3%
[9]; doses ranging from 50 to 400 g/ha
  time to development of chlorosis: about 72 hours
[9]; within one week, doses 50 to 400 g/ha
  very pronounced necrosis, share of the terminal leaves covered: about 80%
Nontransgenic maize
  Number of dead plants: 20
  Number of germinated plants: 20
  Number of surviving plants: 0
[10]; dose of 400 g/ha
  protection against treatment: very well protected
[10]; enzyme overexpressed in the chloroplast (vector pRP V)
  protection against treatment, symptoms: perfectly protected and shows no symptom
[2]
  tolerance: tolerant
[11]; 200 g/ha postemergence
  phytotoxicity, percentage destruction: 4%
[11]; 400 g/ha postemergence
  phytotoxicity, percentage destruction: 5%
[3]; 200 g/ha postemergence
  phytotoxicity, percentage destruction: 75%
[3]; 400 g/ha postemergence
  phytotoxicity, percentage destruction: 85%
[12]; 100 g/ha
  Number of dead plants: 5
  Number of germinated plants: 10
  Number of surviving plants: 5
[12]; 200 g/ha
  Number of dead plants: 4
  Number of germinated plants: 9
  Number of surviving plants: 5
[13]; 100 g/ha
  Number of dead plants: 3
  Number of germinated plants: 5
  Number of surviving plants: 2
[13]; 200 g/ha
  Number of dead plants: 7
  Number of germinated plants: 7
  Number of surviving plants: 0
[14]; 100 g/ha
  Number of dead plants: 6
  Number of germinated plants: 9
  Number of surviving plants: 3
[14]; 200 g/ha
  Number of dead plants: 7
  Number of germinated plants: 10
  Number of surviving plants: 3

Source: US7935869B2, “Chimeric gene with several herbicide tolerance genes, plant cell and plant resistant to several herbicides” (Bayer S.A.S., priority 1996, dated 2011)
